Results reported in patent publication US20140235613A1, “SUBSTITUTED DIARYL AZETIDINE DERIVATIVES AS SPHINGOSINE RECEPTOR MODULATORS” (Allergan, Inc., priority 2013, published 2014).

Target: T1, human S1P1 receptor (Homo sapiens, UniProt P21453)
T1 construct: expressed in transfected cells; membranes used
Test: GTP γ35S binding assay for S1P1 activity
Type: biochemical
Conditions: Activity potency: S1P1 receptor from GTP γ35S; membranes; test concentration range 0.08 to 5,000 nM
Method: Compounds were tested for S1P1 activity using the GTP γ^35S binding assay. These compounds may be assessed for their ability to activate or block activation of the human S1P1 receptor in cells stably expressing the S1P1 receptor.
[…] binding was measured in the medium containing (mM) HEPES 25, pH 7.4, MgCl2 10, NaCl 100, dithitothreitol 0.5, digitonin 0.003%, 0.2 nM GTP γ^35S, and 5 μg membrane protein in a volume of 150 μl. Test compounds were included in the concentration range from 0.08 to 5,000 nM unless indicated otherwise. Membranes were incubated with 100 μM 5′-adenylylimmidodiphosphate for 30 min, and subsequently with 10 μM GDP for 10 min on ice.
Drug solutions and membrane were mixed, and then reactions were initiated by adding GTP γ^35S and continued for 30 min at 25° C. Reaction mixtures were filtered over Whatman GF/B filters under vacuum, and washed three times with 3 mL of ice-cold buffer (HEPES 25, pH7.4, MgCl2 10 and NaCl 100). Filters were dried and mixed with scintillant, and counted for ^35S activity using a β-counter. Agonist-induced GTP γ^35S binding was obtained by subtracting that in the absence of agonist. Binding data were analyzed using a non-linear regression method. In case of antagonist assay, the reaction mixture contained 10 nM S1P in the presence of test antagonist at concentrations ranging from 0.08 to 5000 nM.

T1 sequence (P21453 whole entry): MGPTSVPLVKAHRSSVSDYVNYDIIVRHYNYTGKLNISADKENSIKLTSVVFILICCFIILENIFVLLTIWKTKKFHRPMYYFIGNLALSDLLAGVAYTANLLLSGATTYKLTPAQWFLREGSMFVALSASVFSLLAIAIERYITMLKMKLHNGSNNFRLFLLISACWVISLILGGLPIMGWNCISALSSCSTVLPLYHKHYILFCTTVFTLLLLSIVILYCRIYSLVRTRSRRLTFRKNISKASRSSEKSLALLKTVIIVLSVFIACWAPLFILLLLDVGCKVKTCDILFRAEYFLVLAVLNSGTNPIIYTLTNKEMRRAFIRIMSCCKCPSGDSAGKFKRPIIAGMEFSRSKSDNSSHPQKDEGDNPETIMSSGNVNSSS

| EC50 [nM] | Compound |
| --- | --- |
| 297 | O=C(O)C1CN(Cc2ccc(CC/N=c3\scc(-c4ccccc4)n3-c3ccccc3)cc2)C1 [Compound 1, 1-[4-(2-{[(2Z)-3,4-diphenyl-1,3-thiazol-2(3H)-ylidene]amino}ethyl)benzyl]azetidine-3-carboxylic acid] |
| 5600 | O=C(O)C1CN(Cc2ccc(CCSc3ncc(-c4ccccc4)n3-c3ccccc3)cc2)C1 [Compound 2, 1-(4-{2-[(1,5-diphenyl-1H-imidazol-2-yl)thio]ethyl}benzyl)azetidine-3-carboxylic acid] |
